Data: patent US20200131144A1, “AMINE OR (THIO)AMIDE CONTAINING LXR MODULATORS” (Phenex-FXR GmbH, priority 2017, published 2020)

How the values were obtained:
[1] = target: T1, GST-LXRβ ligand-binding domain (Homo sapiens, UniProt P55055, INS174Q); assay: TR-FRETβ activity assay (NCoA3 coactivator peptide recruitment); format: biochemical; settings: 1 μM 24(S)-25-epoxycholesterol as prestimulating agonist; inverse agonist unless *
T1 construct: amino acids 156-461; NP009052; made in house; host or cells: E. coli
T1 sequence (P55055 with tags, fused parts or gaps INS174Q limits assumed): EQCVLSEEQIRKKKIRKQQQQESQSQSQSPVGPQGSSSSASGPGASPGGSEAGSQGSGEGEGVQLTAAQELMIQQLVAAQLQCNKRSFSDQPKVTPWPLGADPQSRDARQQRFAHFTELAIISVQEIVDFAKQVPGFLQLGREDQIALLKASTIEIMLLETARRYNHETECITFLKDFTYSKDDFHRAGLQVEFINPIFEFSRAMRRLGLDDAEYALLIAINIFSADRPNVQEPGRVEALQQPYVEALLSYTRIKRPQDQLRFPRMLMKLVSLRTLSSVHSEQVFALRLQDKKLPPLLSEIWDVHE
Summary of the method: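 E. coli-expressed GST-LXRβ LBD (aa 156-461, 76 nM) with biotinylated NCoA3 peptide (400 nM), anti-GST-Tb cryptate donor and streptavidin-XL665 acceptor in 240 mM KCl, BSA, 0.002% Triton X-100. Equilibrated 1 h at 4° C; TR-FRET read at 615/665 nm, triplicates.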

[2] = target: T2, LXRα ligand-binding domain (LBD) (Homo sapiens, UniProt Q13133); assay: LXR Gal4 reporter transient transfection assay, mammalian two-hybrid, LBD-M2H Gal4α; format: cell-based; settings: HEK293 cells; inverse agonist unless *
T2 construct: expressed in transfected cells; host or cells: HEK293
T2 sequence (Q13133 155-447): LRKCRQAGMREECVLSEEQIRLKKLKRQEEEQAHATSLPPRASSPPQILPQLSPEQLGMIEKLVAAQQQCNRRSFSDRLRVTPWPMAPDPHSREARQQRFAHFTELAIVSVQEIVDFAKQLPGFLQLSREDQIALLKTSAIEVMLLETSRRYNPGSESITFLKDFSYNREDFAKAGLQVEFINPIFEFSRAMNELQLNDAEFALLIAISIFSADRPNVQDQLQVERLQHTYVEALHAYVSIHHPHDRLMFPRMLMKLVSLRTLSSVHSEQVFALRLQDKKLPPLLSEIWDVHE
Method: (§1) The tested compounds were usually dissolved, tested and stored as 20 mM stock solutions in DMSO. Since sulfonyl acetic acid derivatives tend to decarboxylate under these conditions, these stock solutions were prepared, tested and stored as 20 mM DMSO stock solutions containing 100 mM trifluoroacetic acid (5 equivalents). Sulfonyl acetic acid derivatives are shelf stable as solid at rt for long time as reported by Griesbrecht et al. (Synlett 2010:374) or Faucher et al. (J. Med. Chem. 2004; 47:18).
(§2) LXR Gal4 Reporter Transient Transfection Assays
(§3) LXRα and LXRβ activity status was determined via detection of interaction with coactivator and corepressor proteins in mammalian two-hybrid experiments (M2H). For this, via transient transfection the full length (FL) proteins of LXRα (amino acids 1-447; NP005684; SEQ ID NO:1) or LXRβ-(amino acids 1-461; NP009052; SEQ ID NO:2) or the ligand-binding domains (LBD) of LXRα (amino acids 155-447 SEQ ID NO:3) or LXR (amino acids 156-461; SEQ ID NO:4) were expressed from pCMV-AD (Stratagene) as fusions to the transcriptional activation domain of NFkB. As cofactors, domains of either the steroid receptor coactivator 1 (SRC1; amino acids 552-887; SEQ ID NO:5) or of the corepressor NCoR (amino acids 1906-2312; NP006302; SEQ ID NO:6) were expressed as fusions to the DNA binding domain of the yeast transcription factor GAL4 (from pCMV-BD; Stratagene). Interaction was monitored via activation of a coexpressed Firefly Luciferase Reporter gene under control of a promoter containing repetitive GAL4 response elements (vector pFRLuc; Stratagene). Transfection efficiency was controlled via cotransfection of constitutively active pRL-CMV Renilla reniformis luciferase reporter (Promega). HEK293 cells were grown in minimum essential medium (MEM) with 2 mM L-glutamine and Earle's balanced salt solution supplemented with 8.3% fetal bovine serum, 0.1 mM non-essential amino acids, 1 mM sodium pyruvate, at 37° C. in 5% CO2. 3.5×10^4 cells/well were plated in 96-well cell culture plates in growth medium supplemented with 8.3% fetal bovine serum for 16-20 h to—90% confluency. For transfection, medium was taken off and LXR and cofactor expressing plasmids as well as the reporter plasmids are added in 30 μL OPTIMEM/well including polyethylene-imine (PEI) as vehicle. Typical amounts of plasmids transfected/well: pCMV-AD-LXR (5 ng), pCMV-BD-cofactor (5 ng), pFR-Luc (100 ng), pRL-CMV (0.5 ng). Compound stocks were prepared in DMSO, prediluted in MEM to a total volume of 120 μL, and added 4 h after addition of the transfection mixture (final vehicle concentration not exceeding 0.2%). Cells were incubated for additional 16 h, lysed for 10 min in 1×Passive Lysis Buffer (Promega) and Firefly and Renilla luciferase activities were measured sequentially in the same cell extract using buffers containing D-luciferine and coelenterazine, respectively. Measurements of luminescence were done in a BMG-luminometer.

[3] = target: T3, LXRβ ligand-binding domain (LBD) (Homo sapiens, UniProt P55055, INS174Q); assay: LXR Gal4 reporter transient transfection assay, mammalian two-hybrid, LBD-M2H Gal4β; format: cell-based; settings: HEK293 cells; inverse agonist unless *
T3 construct: or LXR (amino acids 156-461); expressed in transfected cells; host or cells: HEK293
T3 sequence (P55055 with tags, fused parts or gaps INS174Q limits assumed): T1 sequence (P55055 with tags, fused parts or gaps INS174Q limits assumed)
Method: as §1, §2, §3

| Structure (SMILES) | EC50 [1] [nM] | EC50 [2] [nM] | EC50 [3] [nM] |
| --- | --- | --- | --- |
| COc1cc(-c2ccc3c(c2)C(C)(C)C(=O)OC3)ccc1CN(Cc1ccc(C(F)(F)F)o1)Cc1c(C)ccc2ccccc12 [7/9] | 1000 to 10000 | 1000 to 10000 | < 100 |
| Cc1ccc2ccccc2c1CN(Cc1ccc(C(F)(F)F)o1)Cc1ccc(-c2cccc(C(C)(C)C(=O)O)c2)c2nccn12 [7/15] | 1000 to 10000 | 100 to 1000 | < 100 |
| Cc1ccc2ccccc2c1CN(Cc1ccc(-c2cc(C(C)(C)C(=O)O)ccn2)cc1)Cc1ccc(C(F)(F)F)o1 [14/1] | 1000 to 10000 | 100 to 1000 | < 100 |
| Cc1ccc2ccccc2c1CN(Cc1ccc(-c2cccc(C(C)(C)C(=O)O)n2)cc1)Cc1ccc(C(F)(F)F)o1 [14/2] | 1000 to 10000 | 100 to 1000 | < 100 |
| COc1cc(CN(Cc2ccc(C(F)(F)F)o2)Cc2c(C)ccc3ccccc23)ccc1-c1cccc(C(C)(C)C(=O)O)c1 [22/1] | 1000 to 10000 | – | 100 to 1000 |

Continued, values first:

| EC50 [1] [nM] | EC50 [2] [nM] | EC50 [3] [nM] | Structure (SMILES) |
| --- | --- | --- | --- |
| 1000 to 10000 | 100 to 1000 | < 100 | Cc1cc(C)c(C(=O)N(Cc2ccc(-c3cccc(CCC(=O)O)c3)cc2)Cc2ccc(C(F)(F)F)o2)c(C)c1 [10/2] |
| > 10000 | 100 to 1000 | 100 to 1000 | Cc1cc(C)c(C(=O)N(Cc2ccc(-c3cccc(OCC(=O)O)c3)cc2)Cc2ccc(C(F)(F)F)o2)c(C)c1 [10/3] |
| 100 to 1000 | < 100 | < 100 | Cc1ccc2ccccc2c1CN(Cc1ccc(-c2ccnc(C(C)(C)C(=O)O)c2)cc1)Cc1ccc(C(F)(F)F)o1 [14/3] |
| 1000 to 10000 | 1000 to 10000 | 100 to 1000 | Cc1cc(C)c(CN(Cc2ccc(C(F)(F)F)o2)Cc2ccc(-c3cccc(S(=O)(=O)CC(=O)O)c3)cc2Cl)c(C)c1 [15/3] |
| 1000 to 10000 | – | 100 to 1000 | Cc1ccc2ccccc2c1CN(Cc1ccc(C(F)(F)F)o1)Cc1cnc(-c2cccc(C(C)(C)C(=O)O)c2)s1 [22/2] |
| 100 to 1000 | 1000 to 10000 | < 100 | COc1cc(-c2cccc(C(C)(C)C(=O)O)c2)cnc1CN(Cc1ccc(C(F)(F)F)o1)Cc1c(C)ccc2ccccc12 [22/4] |
